Measured values as given in patent US12138232B2, “Compounds for treating coronavirus infection” (priority 2020, dated 2024).

Columns and labels:
[1] = based on literature reports; cited from earlier work
[2] = molecular target: T1, 3CL protease of SARS-coronavirus 2 (Severe acute respiratory syndrome coronavirus 2, UniProt P0DTD1); test: 3CL protease fluorescent assay based on commercial kit (BPS cat. 79955-1); type: biochemical; settings: for Activity (RFU/minute): mean ± standard deviation, 0 μM: 743.7 ± 20.6
T1 construct: purchased BPS 79955-1
Protocol: Inhibition of the activity of 3CL protease of SARS-coronavirus 2 (the coronavirus associated with COVID-19) was determined by an assay based on commercial kit (BPS cat. 79955-1). […] The reaction was initiated by addition of 50 μl of 50 μM kit substrate (25 μM final concentration), and then fluorescence was monitored (at 340 nm excitation wavelength, 510 nm emission wavelength) using a CLARIOstar® Plus plate reader (BMG Labtech). The 3CL protease activity was quantified as relative fluorescent units (RFU) per minute.

Which results are given for CC(C)=CCC(O)C1=CC(=O)c2c(O)ccc(O)c2C1=O (stereo not drawn) [Shikonin, 5,8-dihydroxy-2-(1-hydroxy-4-methylpent-3-en-1-yl)naphthalene-1,4-dione]?
dosages at which toxicity is not expected [1]: less than 8 grams per day; Activity (RFU/minute) ([2]; 0.1 μM shikonin): 653.8 ± 28.1 RFU/minute; Activity (RFU/minute) ([2]; 1 μM shikonin): 680.1 ± 34.3 RFU/minute; Activity (RFU/minute) ([2]; 10 μM shikonin): 425.0 ± 7.8 RFU/minute; inhibition of 3CL protease ([2]; 100 μM shikonin): almost complete inhibition; Activity (RFU/minute) ([2]; 100 μM shikonin): 2.9 ± 18.4 RFU/minute
